Columns and labels:
Assay in all cases: KinaseProfiler off-target kinase profiling
Type in all cases: biochemical
Conditions in all cases: 10 μM, ATP near Km
DAPK2 = DAPK2 (Homo sapiens (Human), UniProt Q9UIK4)
Method in brief: (§1)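 Compounds were screened at 10 μM in duplicate, with ATP near the Km of each individual kinase. Activity is given as percent of control (POC), averaged over both replicates.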

GRK7 = GRK7 (Homo sapiens (Human), UniProt Q8WTQ7)
Method in brief: as §1

BLK_m = BLK_m (Mus musculus (Mouse), UniProt P16277)
Method in brief: as §1

IKKalpha = IKKalpha (Homo sapiens (Human), UniProt O15111)
IKKalpha, sequence (O15111 whole entry): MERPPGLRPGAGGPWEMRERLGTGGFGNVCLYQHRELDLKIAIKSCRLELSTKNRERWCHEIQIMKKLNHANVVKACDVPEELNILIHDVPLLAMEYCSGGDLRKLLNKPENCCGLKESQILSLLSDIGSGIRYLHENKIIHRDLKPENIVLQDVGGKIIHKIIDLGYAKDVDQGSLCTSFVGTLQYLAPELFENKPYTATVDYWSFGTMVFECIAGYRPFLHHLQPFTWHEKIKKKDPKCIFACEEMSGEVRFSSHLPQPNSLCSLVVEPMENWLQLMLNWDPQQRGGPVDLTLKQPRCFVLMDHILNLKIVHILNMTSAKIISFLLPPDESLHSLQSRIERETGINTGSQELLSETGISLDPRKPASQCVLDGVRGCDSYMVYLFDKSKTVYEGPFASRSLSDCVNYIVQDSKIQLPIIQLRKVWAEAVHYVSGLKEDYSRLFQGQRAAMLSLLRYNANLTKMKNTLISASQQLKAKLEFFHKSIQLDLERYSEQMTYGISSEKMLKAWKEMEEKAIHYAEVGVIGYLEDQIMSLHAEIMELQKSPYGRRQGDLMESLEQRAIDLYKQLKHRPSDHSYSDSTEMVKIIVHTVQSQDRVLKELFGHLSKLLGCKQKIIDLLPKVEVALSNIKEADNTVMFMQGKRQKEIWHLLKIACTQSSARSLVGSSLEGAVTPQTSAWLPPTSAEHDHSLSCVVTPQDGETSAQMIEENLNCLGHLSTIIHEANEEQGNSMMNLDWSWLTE
Method in brief: as §1

PTK5 = PTK5 (Homo sapiens (Human), UniProt P42685)
Method in brief: as §1

LOK = LOK (Homo sapiens (Human), UniProt O94804)
Method in brief: as §1

FGFR1 = FGFR1 (Homo sapiens (Human), UniProt P11362)
FGFR1, sequence (P11362 22-822): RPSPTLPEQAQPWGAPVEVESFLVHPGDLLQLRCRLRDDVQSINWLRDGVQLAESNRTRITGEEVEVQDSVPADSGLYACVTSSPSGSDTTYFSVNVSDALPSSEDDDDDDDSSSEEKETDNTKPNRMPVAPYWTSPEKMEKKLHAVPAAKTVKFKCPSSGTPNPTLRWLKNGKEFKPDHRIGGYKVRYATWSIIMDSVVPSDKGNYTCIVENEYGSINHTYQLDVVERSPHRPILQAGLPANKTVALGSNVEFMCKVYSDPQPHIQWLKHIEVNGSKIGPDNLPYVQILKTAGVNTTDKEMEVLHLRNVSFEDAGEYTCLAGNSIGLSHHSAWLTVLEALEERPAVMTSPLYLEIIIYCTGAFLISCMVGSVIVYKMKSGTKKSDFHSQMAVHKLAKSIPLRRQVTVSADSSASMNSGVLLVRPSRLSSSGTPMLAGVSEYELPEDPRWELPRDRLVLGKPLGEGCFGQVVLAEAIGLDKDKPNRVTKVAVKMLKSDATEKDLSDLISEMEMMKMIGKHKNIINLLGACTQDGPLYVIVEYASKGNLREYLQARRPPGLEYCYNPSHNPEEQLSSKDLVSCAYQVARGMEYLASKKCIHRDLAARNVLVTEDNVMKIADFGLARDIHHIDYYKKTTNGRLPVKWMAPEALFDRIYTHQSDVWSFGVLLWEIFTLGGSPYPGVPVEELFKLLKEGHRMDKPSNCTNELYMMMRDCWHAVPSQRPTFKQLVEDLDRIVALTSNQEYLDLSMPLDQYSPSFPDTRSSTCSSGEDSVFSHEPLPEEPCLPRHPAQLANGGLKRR
Method in brief: as §1

CDK9/cyclinT1 = CDK9/cyclinT1 (Homo sapiens (Human), UniProt P50750)
Method in brief: as §1

CAMK2b = CAMK2b (Homo sapiens (Human), UniProt Q13554)
Method in brief: as §1

TrkB = TrkB (Homo sapiens (Human), UniProt Q16620)
Method in brief: as §1

MAPKAP-K2 = MAPKAP-K2 (Homo sapiens (Human), UniProt P49137)
MAPKAP-K2, sequence (P49137 whole entry): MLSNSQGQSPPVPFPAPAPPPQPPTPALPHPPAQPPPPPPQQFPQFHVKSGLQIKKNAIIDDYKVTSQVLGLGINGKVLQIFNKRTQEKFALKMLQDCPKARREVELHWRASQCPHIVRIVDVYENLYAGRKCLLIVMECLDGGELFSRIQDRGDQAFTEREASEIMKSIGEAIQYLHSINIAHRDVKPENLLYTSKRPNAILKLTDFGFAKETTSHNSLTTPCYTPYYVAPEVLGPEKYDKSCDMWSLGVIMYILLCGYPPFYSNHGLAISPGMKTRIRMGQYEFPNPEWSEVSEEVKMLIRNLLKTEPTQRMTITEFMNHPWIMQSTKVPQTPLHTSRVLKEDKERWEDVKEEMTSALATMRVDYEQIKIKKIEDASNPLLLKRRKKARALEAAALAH
Method in brief: as §1

Axl = Axl (Homo sapiens (Human), UniProt P30530)
Method in brief: as §1

FGFR4 = FGFR4 (Homo sapiens (Human), UniProt P22455)
Method in brief: as §1

MRCKalpha = MRCKalpha (Homo sapiens (Human), UniProt Q5VT25)
Method in brief: as §1

ZAP-70 = ZAP-70 (Homo sapiens (Human), UniProt P43403)
Method in brief: as §1

MSK2 = MSK2 (Homo sapiens (Human), UniProt O75676)
Method in brief: as §1

Rsk4 = Rsk4 (Homo sapiens (Human), UniProt Q9UK32)
Method in brief: as §1

Pim-2 = Pim-2 (Homo sapiens (Human), UniProt Q9P1W9)
Method in brief: as §1

HIPK1 = HIPK1 (Homo sapiens (Human), UniProt Q86Z02)
Method in brief: as §1

NEK2 = NEK2 (Homo sapiens (Human), UniProt P51955)
NEK2, sequence (P51955 whole entry): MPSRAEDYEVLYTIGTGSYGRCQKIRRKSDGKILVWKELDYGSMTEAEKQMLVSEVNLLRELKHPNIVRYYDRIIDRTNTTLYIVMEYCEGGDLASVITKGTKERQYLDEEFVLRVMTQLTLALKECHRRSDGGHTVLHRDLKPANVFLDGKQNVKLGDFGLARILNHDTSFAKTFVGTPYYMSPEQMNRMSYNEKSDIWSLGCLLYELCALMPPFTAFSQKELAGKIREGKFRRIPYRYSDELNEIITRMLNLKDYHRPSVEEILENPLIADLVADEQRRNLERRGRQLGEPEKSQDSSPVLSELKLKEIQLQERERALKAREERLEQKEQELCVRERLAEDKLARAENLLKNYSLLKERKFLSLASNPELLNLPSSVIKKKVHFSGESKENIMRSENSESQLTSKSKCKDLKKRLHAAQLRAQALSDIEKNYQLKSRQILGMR
Method in brief: as §1

MST3 = MST3 (Homo sapiens (Human), UniProt Q9Y6E0)
Method in brief: as §1

IGF-1R Activated = IGF-1R Activated (Homo sapiens (Human), UniProt P08069)
Method in brief: as §1

CDK3/cyclinE = CDK3/cyclinE (Homo sapiens (Human), UniProt Q00526)
CDK3/cyclinE, sequence (Q00526 whole entry): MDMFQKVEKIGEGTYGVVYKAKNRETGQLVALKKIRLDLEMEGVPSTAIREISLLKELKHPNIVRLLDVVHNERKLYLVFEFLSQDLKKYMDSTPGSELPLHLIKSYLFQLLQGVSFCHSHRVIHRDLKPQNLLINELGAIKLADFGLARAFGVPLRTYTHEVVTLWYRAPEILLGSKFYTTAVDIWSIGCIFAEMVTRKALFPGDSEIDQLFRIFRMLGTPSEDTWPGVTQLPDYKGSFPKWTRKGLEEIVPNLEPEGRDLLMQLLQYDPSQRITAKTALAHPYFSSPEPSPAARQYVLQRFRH
CDK3/cyclinE, sequence (P24864 whole entry partner): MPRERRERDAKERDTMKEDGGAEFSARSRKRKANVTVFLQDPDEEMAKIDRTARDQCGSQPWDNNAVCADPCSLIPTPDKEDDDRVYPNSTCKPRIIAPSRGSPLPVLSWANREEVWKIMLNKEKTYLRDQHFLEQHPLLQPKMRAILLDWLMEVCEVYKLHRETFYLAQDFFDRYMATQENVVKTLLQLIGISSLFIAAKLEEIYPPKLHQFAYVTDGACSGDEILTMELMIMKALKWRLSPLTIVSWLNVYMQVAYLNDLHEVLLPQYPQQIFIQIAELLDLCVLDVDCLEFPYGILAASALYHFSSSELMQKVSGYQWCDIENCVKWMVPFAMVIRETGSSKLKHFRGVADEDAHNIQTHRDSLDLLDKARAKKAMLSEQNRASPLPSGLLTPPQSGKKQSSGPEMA
Method in brief: as §1

IR = IR (Homo sapiens (Human), UniProt P06213)
Method in brief: as §1

TSSK1 = TSSK1 (Homo sapiens (Human), UniProt Q9BXA7)
Method in brief: as §1

AKT3 = AKT3 (Homo sapiens (Human), UniProt Q9Y243)
Method in brief: as §1

TAO3 = TAO3 (Homo sapiens (Human), UniProt Q9H2K8)
Method in brief: as §1

PKCgamma = PKCgamma (Homo sapiens (Human), UniProt P05129)
Method in brief: as §1

CSK = CSK (Homo sapiens (Human), UniProt P41240)
Method in brief: as §1

MKK6 = MKK6 (Homo sapiens (Human), UniProt P52564)
MKK6, sequence (P52564 whole entry): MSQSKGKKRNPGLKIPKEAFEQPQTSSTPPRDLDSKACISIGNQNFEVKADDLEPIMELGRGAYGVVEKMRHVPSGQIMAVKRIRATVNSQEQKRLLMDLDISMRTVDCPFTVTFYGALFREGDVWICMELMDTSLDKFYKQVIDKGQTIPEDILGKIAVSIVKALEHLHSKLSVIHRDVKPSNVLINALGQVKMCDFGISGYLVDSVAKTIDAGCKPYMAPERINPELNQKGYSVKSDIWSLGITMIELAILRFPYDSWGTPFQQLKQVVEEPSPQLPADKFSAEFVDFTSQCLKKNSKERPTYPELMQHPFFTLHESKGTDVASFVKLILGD
Method in brief: as §1

SGK1 = SGK1 (Homo sapiens (Human), UniProt O00141)
Method in brief: as §1

HIPK3 = HIPK3 (Homo sapiens (Human), UniProt Q9H422)
Method in brief: as §1

PKCzeta = PKCzeta (Homo sapiens (Human), UniProt Q05513)
Method in brief: as §1

ALK = ALK (Homo sapiens (Human), UniProt Q9UM73)
ALK, sequence (Q9UM73 19-1620): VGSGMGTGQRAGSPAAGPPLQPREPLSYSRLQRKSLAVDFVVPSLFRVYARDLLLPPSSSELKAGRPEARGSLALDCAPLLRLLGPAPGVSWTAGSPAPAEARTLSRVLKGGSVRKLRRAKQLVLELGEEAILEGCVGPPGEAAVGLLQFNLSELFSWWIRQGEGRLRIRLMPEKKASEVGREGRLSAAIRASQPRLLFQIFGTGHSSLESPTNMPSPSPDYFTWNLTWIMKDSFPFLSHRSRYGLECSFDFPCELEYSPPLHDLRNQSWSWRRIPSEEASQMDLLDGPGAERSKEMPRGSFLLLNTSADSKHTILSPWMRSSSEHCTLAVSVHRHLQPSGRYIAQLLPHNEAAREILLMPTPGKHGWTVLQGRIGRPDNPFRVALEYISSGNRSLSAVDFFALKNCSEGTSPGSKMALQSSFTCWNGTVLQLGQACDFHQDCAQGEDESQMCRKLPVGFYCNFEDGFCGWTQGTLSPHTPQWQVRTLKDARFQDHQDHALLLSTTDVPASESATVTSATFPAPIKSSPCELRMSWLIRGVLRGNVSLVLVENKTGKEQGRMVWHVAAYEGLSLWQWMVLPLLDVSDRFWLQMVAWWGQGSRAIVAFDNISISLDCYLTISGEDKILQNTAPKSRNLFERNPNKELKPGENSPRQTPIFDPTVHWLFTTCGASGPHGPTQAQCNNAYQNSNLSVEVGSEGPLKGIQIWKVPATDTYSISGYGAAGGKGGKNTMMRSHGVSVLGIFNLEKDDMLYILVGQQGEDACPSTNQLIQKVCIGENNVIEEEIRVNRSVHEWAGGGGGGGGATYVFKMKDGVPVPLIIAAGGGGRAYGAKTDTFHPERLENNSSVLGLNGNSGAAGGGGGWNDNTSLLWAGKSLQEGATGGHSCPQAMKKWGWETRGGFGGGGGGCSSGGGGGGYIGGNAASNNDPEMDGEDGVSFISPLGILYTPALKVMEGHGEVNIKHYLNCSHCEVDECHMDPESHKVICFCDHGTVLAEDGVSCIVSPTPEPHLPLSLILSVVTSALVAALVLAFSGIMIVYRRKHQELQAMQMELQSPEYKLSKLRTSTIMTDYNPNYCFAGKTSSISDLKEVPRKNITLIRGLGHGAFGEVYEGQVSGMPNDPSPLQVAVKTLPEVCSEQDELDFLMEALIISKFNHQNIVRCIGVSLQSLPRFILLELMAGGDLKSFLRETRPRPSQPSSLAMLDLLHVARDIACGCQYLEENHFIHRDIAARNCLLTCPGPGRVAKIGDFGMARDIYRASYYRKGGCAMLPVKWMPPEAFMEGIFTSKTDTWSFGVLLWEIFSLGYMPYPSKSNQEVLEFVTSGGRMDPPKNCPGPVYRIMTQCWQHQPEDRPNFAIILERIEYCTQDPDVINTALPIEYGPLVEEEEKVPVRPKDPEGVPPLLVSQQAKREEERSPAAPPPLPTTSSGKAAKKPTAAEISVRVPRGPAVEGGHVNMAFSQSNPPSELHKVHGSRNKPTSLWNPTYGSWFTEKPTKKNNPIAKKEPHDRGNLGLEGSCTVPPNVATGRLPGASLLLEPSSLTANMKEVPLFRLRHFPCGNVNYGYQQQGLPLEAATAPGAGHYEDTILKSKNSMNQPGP
Method in brief: as §1

Hck = Hck (Homo sapiens (Human), UniProt P08631)
Method in brief: as §1

MRCKbeta = MRCKbeta (Homo sapiens (Human), UniProt Q9Y5S2)
Method in brief: as §1

IGF-1R = IGF-1R (Homo sapiens (Human), UniProt P08069)
Method in brief: as §1

CAMK1 = CAMK1 (Homo sapiens (Human), UniProt Q14012)
Method in brief: as §1

ROCK-I = ROCK-I (Homo sapiens (Human), UniProt Q13464)
Method in brief: as §1

Row | SMILES | Avg. POC (DAPK2) [POC] | Avg. POC (GRK7) [POC] | Avg. POC (BLK_m) [POC] | Avg. POC (IKKalpha) [POC] | Avg. POC (PTK5) [POC] | Avg. POC (LOK) [POC] | Avg. POC (FGFR1) [POC] | Avg. POC (CDK9/cyclinT1) [POC] | Avg. POC (CAMK2b) [POC] | Avg. POC (TrkB) [POC] | Avg. POC (MAPKAP-K2) [POC] | Avg. POC (Axl) [POC] | Avg. POC (FGFR4) [POC] | Avg. POC (MRCKalpha) [POC] | Avg. POC (ZAP-70) [POC] | Avg. POC (MSK2) [POC] | Avg. POC (Rsk4) [POC] | Avg. POC (Pim-2) [POC] | Avg. POC (HIPK1) [POC] | Avg. POC (NEK2) [POC] | also measured
1 | Cc1c(-c2cnn(C)c2)nn(-c2ccccc2)c1NC(=O)N[C@H]1CCCc2ccccc21 [Example 2, (S)-1-(1′,4-dimethyl-1-phenyl-1H,1′H-3,4′-bipyrazol-5-yl)-3-(1,2,3,4-tetrahydronaphthalen-1-yl)urea] | 123.5 | 108.5 | 126 | 141.5 | 122 | 109.5 | 114 | 127 | 106.5 | −2 | 137.5 | 113.5 | 124 | 127.5 | 124 | 112 | 140 | 148 | 97 | 104 | Avg. POC (MST3): 120 POC; Avg. POC (IGF-1R Activated): 95 POC; Avg. POC (CDK3/cyclinE): 105.5 POC; Avg. POC (IR): 44 POC; Avg. POC (TSSK1): 106 POC; Avg. POC (AKT3): 116.5 POC; Avg. POC (TAO3): 111 POC; Avg. POC (PKCgamma): 102 POC; Avg. POC (CSK): 124 POC; Avg. POC (MKK6): 130 POC; Avg. POC (SGK1): 150 POC; Avg. POC (HIPK3): 119.5 POC; Avg. POC (PKCzeta): 122.5 POC; Avg. POC (ALK): 111 POC; Avg. POC (Hck): 85.5 POC; Avg. POC (MRCKbeta): 129.5 POC; Avg. POC (IGF-1R): 18 POC; Avg. POC (CAMK1): 109.5 POC; Avg. POC (ROCK-I): 116.5 POC
2 | Cc1c(-c2cnn(C)c2)nn(-c2ccccc2)c1NC(=O)NC1CCOc2cc(F)ccc21 (stereo not drawn) [Example 12, 1-(1′,4-dimethyl-1-phenyl-1H,1′H-[3,4′-bipyrazol]-5-yl)-3-(7-fluorochroman-4-yl)urea] | 102.5 | 117 | 112 | 119.5 | 100 | 116 | 90 | 106 | 106 | 1 | 122.5 | 106 | 119 | 139 | 140 | 127 | 101 | 118.5 | 102.5 | 91.5 | Avg. POC (MST3): 131.5 POC; Avg. POC (IGF-1R Activated): 102.5 POC; Avg. POC (CDK3/cyclinE): 98.5 POC; Avg. POC (IR): 92 POC; Avg. POC (TSSK1): 79 POC; Avg. POC (AKT3): 94 POC; Avg. POC (TAO3): 99 POC; Avg. POC (PKCgamma): 104.5 POC; Avg. POC (CSK): 131.5 POC; Avg. POC (MKK6): 123 POC; Avg. POC (SGK1): 129 POC; Avg. POC (HIPK3): 102.5 POC; Avg. POC (PKCzeta): 99.5 POC; Avg. POC (ALK): 103 POC; Avg. POC (Hck): 103.5 POC; Avg. POC (MRCKbeta): 103.5 POC; Avg. POC (IGF-1R): 80 POC; Avg. POC (CAMK1): 102 POC; Avg. POC (ROCK-I): 116.5 POC
3 | Cc1c(-c2ccc(=O)n(C)c2)nn(-c2ccccc2)c1NC(=O)NC1CN(CC(F)(F)F)Cc2ccccc21 (stereo not drawn) [Example 26, 1-(4-methyl-3-(1-methyl-6-oxo-1,6-dihydropyridin-3-yl)-1-phenyl-1H-pyrazol-5-yl)-3-(2-(2,2,2-trifluoroethyl)-1,2,3,4-tetrahydroisoquinolin-4-yl)urea] | 108.5 | 118 | 103.5 | 112.5 | 110 | 109 | 104.5 | 112.5 | 107 | 1.5 | 120 | 107 | 123 | 124.5 | 120.5 | 107.5 | 99.5 | 120.5 | 111 | 100.5 | Avg. POC (MST3): 108.5 POC; Avg. POC (IGF-1R Activated): 98 POC; Avg. POC (CDK3/cyclinE): 101.5 POC; Avg. POC (IR): 82.5 POC; Avg. POC (TSSK1): 71.5 POC; Avg. POC (AKT3): 96 POC; Avg. POC (TAO3): 109 POC; Avg. POC (PKCgamma): 99 POC; Avg. POC (CSK): 118.5 POC; Avg. POC (MKK6): 121.5 POC; Avg. POC (SGK1): 97.5 POC; Avg. POC (HIPK3): 111 POC; Avg. POC (PKCzeta): 108.5 POC; Avg. POC (ALK): 117 POC; Avg. POC (Hck): 91.5 POC; Avg. POC (MRCKbeta): 110 POC; Avg. POC (IGF-1R): 60.5 POC; Avg. POC (CAMK1): 106 POC; Avg. POC (ROCK-I): 112 POC
4 | COCc1ccc2c(c1)C(NC(=O)Nc1c(C)c(-c3cnn(C)c3)nn1-c1ccccc1)COC2 (stereo not drawn) [Example 32, 1-(1′,4-dimethyl-1-phenyl-1H,1′H-[3,4′-bipyrazol]-5-yl)-3-(6-(methoxymethyl)isochroman-4-yl)urea] | 103 | 117.5 | 111 | 102 | 104 | 103.5 | 104.5 | 106.5 | 102.5 | −0.5 | 117.5 | 119.5 | 139.5 | 131 | 124 | 99.5 | 95 | 116.5 | 115 | 108 | Avg. POC (MST3): 130.5 POC; Avg. POC (IGF-1R Activated): 112.5 POC; Avg. POC (CDK3/cyclinE): 102.5 POC; Avg. POC (IR): 109 POC; Avg. POC (TSSK1): 88.5 POC; Avg. POC (AKT3): 77.5 POC; Avg. POC (TAO3): 105 POC; Avg. POC (PKCgamma): 104 POC; Avg. POC (CSK): 123 POC; Avg. POC (MKK6): 134.5 POC; Avg. POC (SGK1): 119 POC; Avg. POC (HIPK3): 107 POC; Avg. POC (PKCzeta): 115 POC; Avg. POC (ALK): 127 POC; Avg. POC (Hck): 98 POC; Avg. POC (MRCKbeta): 103 POC; Avg. POC (IGF-1R): 84.5 POC; Avg. POC (CAMK1): 100 POC; Avg. POC (ROCK-I): 103 POC

Source: patent US10351575B2, “Bicyclic urea, thiourea, guanidine and cyanoguanidine compounds useful for the treatment of pain” (Array BioPharma Inc., priority 2012, dated 2019)
